Assay results as given in PMC4782294, “ERK mediated upregulation of death receptor 5 overcomes the lack of p53 functionality in the diaminothiazole DAT1 induced apoptosis in colon cancer models: efficiency of DAT1 in Ras-Raf mutated cells” (Molecular Cancer, 2016).

Columns and labels:
SW 480 = experiment: MTT cytotoxicity assay; format: cell-based; details: Homo sapiens, SW480, SW 480, 48 h
Procedure: (§1) Cells were seeded in 96 well plates. At about70 % confluency, they were treated with different concentrations of drugs either individually or in combination. After 48 h, MTT assay was done (Mossmann 1983) and absorbance was measured at 570 nm (Biorad Microplate reader). Percentage viability was plotted against the respective concentrations of the drugs and half inhibitory concentration (IC50) was calculated with the non linear regression programme of Origin.

HT 29 = experiment: MTT cytotoxicity assay; format: cell-based; details: Homo sapiens, HT 29, 48 h
Procedure: as §1

HCT116 p53 -/- = experiment: MTT cytotoxicity assay; format: cell-based; details: Homo sapiens, HCT-116, 48 h
Procedure: as §1

HCT116 [1] = experiment: MTT cytotoxicity assay; format: cell-based; details: Homo sapiens, HCT-116, HCT116, 48 h
Procedure: as §1

SW 620 = experiment: MTT cytotoxicity assay; format: cell-based; details: Homo sapiens, SW 620, 48 h
Procedure: as §1

HCT116 xenograft tumours = experiment: Colon cancer xenograft study; format: in vivo, SCID/NOD mice
Procedure: (§2) SCID/NOD mice were divided into groups of ten and allowed to acclimatize. After 5 days, tumours were raised by injecting HCT116 or HCT116 p53 −/− cells (1.5 × 10^5 cells suspended in PBS) subcutaneously in the inner flank region. Once the tumour volumes reached 20–80 mm^3, drug was administered intraperitoneally, thrice a week at different concentrations.

[2] = tested on: HCT116 p53 −/− xenograft tumours; experiment: Colon cancer xenograft study; format: in vivo, SCID/NOD mice
Procedure: as §2

Swiss Albino mice [3] = experiment: Acute toxicity study; format: in vivo; details: for Final weight: after 14 days; for Initial weight: before drug administration
Procedure: In acute toxicity studies, Swiss Albino mice were divided in to six groups of six animal each and DAT1 (12–50 mg/kg) was administered intraperitoneally (i.p) and observed for 14 days for signs of weight loss, dehydration or mortality. DAT1 was dissolved in vehicle cremaphor:ethanol (1:1) and diluted in 0.9 % saline.
Swiss Albino mice were divided into 6 groups of 6 mice each and were injected with either DAT1 or vehicle intraperitoneally. […] Group I: 12mg/kg, Group II: 20 mg/kg, Group III: 30 mg/kg, Group IV: 40 mg/kg, Group V: 50 mg/kg

Swiss Albino mice [4] = experiment: Sub-acute toxicity study; format: in vivo; details: for RBC / WBC / ALP / ALT / AST / BUN / Creatinine: 3 months; for ALP / ALT / AST / BUN / Creatinine: serum
Procedure: In sub-acute toxicity studies, Swiss albino mice were divided into five groups of eight animals each. Three groups of Swiss Albino mice were administered (i.p injection) with 4, 8 or 16 mg/kg DAT1, and the control and vehicle control groups were administered with 0.9 % saline or vehicle respectively. Injections were given every alternate day for the first 10 days and after that, twice weekly for a period of 3 months. After 3 months animals were sacrificed and whole blood, liver and kidney were collected. Hematotoxicity was checked by RBC and WBC count. Hepatotoxicity was measured by monitoring the serum ALT and AST levels. Nephrotoxicity was measured by monitoring BUN and creatinine levels in the serum. ALP activity was measured for detection of liver or bone toxicity.

Colo 320 DM [5] = experiment: DAPI staining for detection of apoptosis (chromatin condensation); format: cell-based; details: approximately 1.5 times the IC50 concentration, 24 h
Procedure: (§3) The cells were grown on coverslips in 24 well plates and incubated with respective drug or inhibitor for 24 h. They were then washed with PBS, fixed with chilled methanol-EDTA for 10 min and rehydrated with PBS for 10 min at room temperature. Successively, the cells were treated with DAPI (0.5 μg/ml) for 2 min in the dark. The coverslips were then mounted on fluoromount G and viewed at 40X in the UV region using a fluorescence microscope (Olympus IX71).

HCT116 p53 −/− = experiment: as above; format: cell-based
Procedure: as §3

Caco2 = experiment: as above; format: cell-based; details: Caco2, approximately 1.5 times the IC50 concentration, 24 h
Procedure: as §3

HCT116 [6] = experiment: as above; format: cell-based
Procedure: as §3

DR5 = DR5 induction by western blotting; format: cell-based; details: cells with non functional p53 (HCT116 p53 −/−, SW620, SW480, HT29), ~1.5 X IC50
Procedure: (§4) Cells were grown to 70–80 % confluency in 60 mm culture dishes. After drug treatment, they were harvested and lysed. Protein samples from tissues were collected by homogenizing the tissue in the presence of lysis buffer, followed by centrifugation for 20 min. The protein samples were run in a 10–12 % gel and transferred on to a PVDF membrane. The membranes were probed with specific primary antibodies (1:1000) overnight followed by secondary antibodies conjugated with horse radish peroxidase/alkaline phosphatase (1:2000) for 1 hr at room temperature and were developed by chemiluminescence or alkaline phosphatase method.

Colo 320 DM [7] = experiment: MTT cytotoxicity assay; format: cell-based; details: Homo sapiens, 48 h
Procedure: as §1

Caco 2 = experiment: MTT cytotoxicity assay; format: cell-based; details: Homo sapiens, Caco 2, 48 h
Procedure: as §1

ERK = ERK activation by western blotting; format: cell-based
Procedure: as §4

caspase 8 = experiment: Caspase 8 activation by western blotting; format: cell-based; details: cell lines irrespective of their p53 status
Procedure: as §4

SMILES: O=c1[nH]cc(F)c(=O)[nH]1 [5 fluoro uracil, 5-fluorouracil]
- IC50 (SW 480): 18600 ± 680 nM
- IC50 (HT 29): 20200 ± 770 nM
- IC50 (HCT116 p53 -/-): 19300 ± 1340 nM
- IC50 (HCT116 [1]): 8690 ± 540 nM
- IC50 (SW 620): 9650 ± 330 nM

SMILES: COc1ccc(Nc2nc(N)c(C(=O)c3ccccc3)s2)cc1 [DAT1, 4-Amino-5-benzoyl-2-(4-methoxyphenylamino)thiazole]
- tumour inhibition (HCT116 xenograft tumours; HCT116 tumours, 20 mg/kg i.p., thrice a week, 28 days): 72.3%
- mean tumour volume (HCT116 xenograft tumours; HCT116 xenograft, treatment for 28 days, i.p.): reduced the mean tumour volume effectively in a concentration dependent way
- reduction in tumour inhibition vs parental HCT116 ([2]; 20 mg/kg): about 19%
- tumour inhibition ([2]; HCT116 p53 −/− tumours, 20 mg/kg i.p., thrice a week, 28 days): 53.4%
- mean tumour volume ([2]; HCT116 p53−/− xenograft, treatment for 28 days, i.p.): reduced the mean tumour volume effectively in a concentration dependent way
- Final weight (Swiss Albino mice [3]; 12 mg/kg i.p.): 33.1 ± 1.56 g
- Initial weight (Swiss Albino mice [3]; 12 mg/kg i.p.): 32.4 ± 1.34 g
- Final weight (Swiss Albino mice [3]; 20 mg/kg i.p.): 33.46 ± 3.87 g
- Initial weight (Swiss Albino mice [3]; 20 mg/kg i.p.): 32.8 ± 5.44 g
- Final weight (Swiss Albino mice [3]; 30 mg/kg i.p.): 29.86 ± 2.82 g
- Initial weight (Swiss Albino mice [3]; 30 mg/kg i.p.): 27.2 ± 1.22 g
- Final weight (Swiss Albino mice [3]; 40 mg/kg i.p.): 27.8 ± 2.67 g
- Initial weight (Swiss Albino mice [3]; 40 mg/kg i.p.): 26.6 ± 2.4 g
- Final weight (Swiss Albino mice [3]; 50 mg/kg i.p.): 26.12 ± 2.14 g
- Initial weight (Swiss Albino mice [3]; 50 mg/kg i.p.): 25.6 ± 2.03 g
- RBC (Swiss Albino mice [4]; 4 mg/kg i.p.): 4.42 ± 0.75 million/mm^3
- WBC (Swiss Albino mice [4]; 4 mg/kg i.p.): 8100 ± 1979 per mm^3
- ALP (Swiss Albino mice [4]; 4 mg/kg i.p.): 158.32 ± 8.32 U/L
- ALT (Swiss Albino mice [4]; 4 mg/kg i.p.): 54.38 ± 4.15 U/L
- AST (Swiss Albino mice [4]; 4 mg/kg i.p.): 128 ± 25.1 U/L
- BUN (Swiss Albino mice [4]; 4 mg/kg i.p.): 29.8 ± 1.25 mg/dL
- Creatinine (Swiss Albino mice [4]; 4 mg/kg i.p.): 0.82 ± 0.1 mg/dL
- RBC (Swiss Albino mice [4]; 8 mg/kg i.p.): 4.48 ± 0.34 million/mm^3
- WBC (Swiss Albino mice [4]; 8 mg/kg i.p.): 6220 ± 1626.34 per mm^3
- ALP (Swiss Albino mice [4]; 8 mg/kg i.p.): 136.48 ± 10.69 U/L
- ALT (Swiss Albino mice [4]; 8 mg/kg i.p.): 53.845 ± 4.81 U/L
- AST (Swiss Albino mice [4]; 8 mg/kg i.p.): 128.165 ± 1.87 U/L
- Creatinine (Swiss Albino mice [4]; 8 mg/kg i.p.): 0.76 ± 0.07 mg/dL
- RBC (Swiss Albino mice [4]; 16 mg/kg i.p.): 4.475 ± 0.26 million/mm^3
- WBC (Swiss Albino mice [4]; 16 mg/kg i.p.): 4550 ± 264.575 per mm^3
- ALP (Swiss Albino mice [4]; 16 mg/kg i.p.): 155.61 ± 15.15 U/L
- ALT (Swiss Albino mice [4]; 16 mg/kg i.p.): 148.39 ± 14.55 U/L
- AST (Swiss Albino mice [4]; 16 mg/kg i.p.): 162.67 ± 12.73 U/L
- BUN (Swiss Albino mice [4]; 16 mg/kg i.p.): 29.8 ± 1.27 mg/dL
- Creatinine (Swiss Albino mice [4]; 16 mg/kg i.p.): 0.58 ± 0.09 mg/dL
- body weight change (Swiss Albino mice [4]; 4, 8 or 16 mg/kg i.p., end of 3 months): no significant change in the weight
- apoptosis (chromosome condensation) (Colo 320 DM [5]): 38%
- percentage of apoptotic cells (HCT116 p53 −/−; DAT1 alone, 24 h): 60%
- percentage of apoptotic cells (HCT116 p53 −/−; DAT1 in the presence of MEK inhibitor U0126): 5%
- apoptosis (chromosome condensation) (Caco2): 32%
- percentage of apoptotic cells (HCT116 [6]; HCT116, DAT1 alone, 24 h): 67%
- percentage of apoptotic cells (HCT116 [6]; HCT116, DAT1 in the presence of MEK inhibitor U0126): 3%
- DR5 upregulation (DR5): caused DR5 upregulation
- IC50 (Colo 320 DM [7]): 655 ± 48 nM
- IC50 (SW 480): 795 ± 90 nM
- IC50 (HT 29): 200 ± 80 nM
- IC50 (HCT116 p53 -/-): 709 ± 80 nM
- IC50 (HCT116 [1]): 300 ± 80 nM
- IC50 (Caco 2): 5320 ± 162 nM
- IC50 (SW 620): 420 ± 70 nM
- ERK activation (ERK; Colo 320 DM or Caco2 cell lines with wild type Ras or Raf, ~1.5 times IC50): unable to activate ERK
- P-ERK activation (ERK; HCT116 and HCT116 p53−/− cells): caused P-ERK activation
- caspase 8 activation (caspase 8): caused caspase 8 activation

SMILES: CC(=O)O[C@H]1C(=O)[C@@]2(C)[C@H]([C@H](OC(=O)c3ccccc3)[C@]3(O)C[C@H](OC(=O)[C@H](O)[C@@H](NC(=O)c4ccccc4)c4ccccc4)C(C)=C1C3(C)C)[C@]1(OC(C)=O)CO[C@@H]1C[C@@H]2O [Taxol, paclitaxel]
- IC50 (SW 480): 31.5 ± 1.4 nM
- IC50 (HT 29): 10 ± 1.4 nM
- IC50 (HCT116 p53 -/-): 6 ± 2 nM
- IC50 (HCT116 [1]): 14 ± 7 nM
- IC50 (SW 620): 24.5 ± 6 nM

SMILES: CC[C@]1(O)C[C@@H]2CN(CCc3c([nH]c4ccccc34)[C@@](C(=O)OC)(c3cc4c(cc3OC)N(C)[C@H]3[C@@](O)(C(=O)OC)[C@H](OC(C)=O)[C@]5(CC)C=CCN6CC[C@]43[C@@H]65)C2)C1 [Vinblastine]
- apoptosis induction (HCT116 p53 −/−; 0.01 μM, 24 h): failed to induce apoptosis
- apoptosis induction (HCT116 [6]; HCT116 p53 wild type, 0.01 μM, 24 h): large apoptotic response
- IC50 (SW 480): 3380 ± 247 nM
- IC50 (HT 29): 1.5 ± 0.7 nM
- IC50 (HCT116 p53 -/-): 19.5 ± 0.7 nM
- IC50 (HCT116 [1]): 4 ± 2 nM
- IC50 (SW 620): 300 ± 90 nM
